{"source": "patent US9827315B2", "about": "“Compositions of pharmaceutical actives containing diethylene glycol monoethyl ether or other alkyl derivatives” (THEMIS MEDICARE LIMITED, priority 2013, dated 2017)", "key": {"[1]": {"conditions": "cited from earlier work"}, "[2]": {"experiment": "Intramuscular, Intravenous and Intraocular safety studies", "conditions": "in vivo"}, "[3]": {"test_system": "Rabbits (New Zealand White)", "experiment": "Acute Eye Irritation/Corrosion Test in Rabbits", "format": "in vivo", "protocol": "Acute Eye Irritation/Corrosion Test for Diethylene Glycol Monoethyl Ether (Transcutol HP) in Rabbits • Test Item Transcutol HP • Diluted with: Water for injection • Test System Rabbits (New Zealand White) • Total No. of Animals: 6 animals for initial test • 12 animals for confirmatory test • No. of groups: 6 Study Design:\nInitial test is carried out by using one animal per group.\nIrrigation was carried out after 24 hrs from the treatment and the animals are again observed for symptoms of toxicity.\nConfirmatory test is carried out by using two animals per group.\nThe dosing methodology and irrigation procedure was same as mentioned in the initial test and the observations were found as follows: […]"}, "[4]": {"conditions": "cited from earlier work; for half-life: in vivo"}, "physchem [5]": {"experiment": "physchem", "conditions": "organic solvent or mixture, Solubility in Diethylene Glycol Monoethyl Ether"}, "[6]": {"experiment": "Viscosity of formulations prepared in Diethylene glycol monoethyl ether and of comparators", "format": "physicochemical", "conditions": "final solution/formulation; marketed comparators"}, "physchem [7]": {"experiment": "physchem", "conditions": "organic solvent or mixture", "method": "Progesterone is dissolved in solution of 20% Benzyl alcohol giving a clear solution and add Diethylene glycol monoethyl ether with constant stirring and make the volume up to 100 ml with Diethylene glycol monoethyl ether. […] This solution is filled in 3 ml clear glass vial."}, "[8]": {"experiment": "Solubility of pharmaceutical actives in Diethylene glycol monoethyl ether", "conditions": "for solubility: Diethylene glycol monoethyl ether, organic solvent or mixture, Solubility in Diethylene Glycol Monoethyl Ether"}}, "note": "Read-outs that look alike come from different tables or passages of the source."}
{"smiles": "CCOCCOCCO", "note": "[Diethylene glycol monoethyl ether, 2-(2-Ethoxyethoxy)ethanol]", "values": [{"measurement": "Solubility in water (descriptive)", "setting": "[1]", "value": "soluble"}, {"measurement": "safety in Intramuscular, Intravenous and Intraocular studies", "setting": "[2]", "value": "safe and non toxic"}, {"measurement": "eye irritation, confirmatory test", "setting": "[3]; 1 hr, first three groups", "value": "no test item related effects"}, {"measurement": "eye irritation, confirmatory test", "setting": "[3]; 1 hr, group 4 and group 5", "value": "Mild irritation"}, {"measurement": "eye irritation, confirmatory test", "setting": "[3]; 1 hr, group 6", "value": "severe irritation"}, {"measurement": "eye irritation, initial test", "setting": "[3]; 24 hr, all animals except group 6", "value": "normal"}, {"measurement": "eye irritation, confirmatory test", "setting": "[3]; 24 hr, group 1 to group 3", "value": "normal"}, {"measurement": "eye irritation, confirmatory test", "setting": "[3]; 24 hr, group 4 and group 5", "value": "mild irritation including Chemosis, lacrimation and mild pupillary constriction"}, {"measurement": "eye irritation, confirmatory test", "setting": "[3]; 24 hr, group 6", "value": "severe irritation"}, {"measurement": "eye irritation, initial test", "setting": "[3]; 24 hr, group 6", "value": "mild irritation including Chemosis and Lacrimation"}, {"measurement": "ocular toxicity, summary", "setting": "[3]; concentration of 100%, intra occularly", "value": "irritant but not corrosive"}, {"measurement": "eye irritation, initial test", "setting": "[3]; first hour, first three groups", "value": "no test item related effects"}, {"measurement": "eye irritation, initial test", "setting": "[3]; first hour, group 4 and 5", "value": "Mild irritation"}, {"measurement": "eye irritation, initial test", "setting": "[3]; first hour, group 6", "value": "moderate irritation"}, {"measurement": "corrosion effect, initial test", "setting": "[3]; rabbit, in vivo", "value": "no corrosion effect"}, {"measurement": "ocular toxicity, summary", "setting": "[3]; up to 80% of concentration", "value": "not showing any occular toxicity"}]}
{"smiles": "C[C@]12CC[C@H]3[C@@H](CCC4=CC(=O)CC[C@@]43C)[C@@H]1CC[C@@H]2O", "note": "[Testosterone]", "values": [{"measurement": "Solubility in water (descriptive)", "setting": "[1]", "value": "practically insoluble"}, {"measurement": "half-life", "setting": "[4]", "value": "2 to 4", "unit": "h"}]}
{"smiles": "CCCCCCC(=O)O[C@H]1CC[C@H]2C3CCC4=CC(=O)CCC4(C)[C@H]3CCC12C", "note": "(stereo partly shown) [Testosterone Enanthate, Testosterone enanthate]", "values": [{"measurement": "Solubility in water (descriptive)", "setting": "[1]", "value": "insoluble"}, {"measurement": "solubility", "setting": "physchem [5]", "value": 55.5, "unit": "mg/mL"}]}
{"smiles": "C[C@]12CC[C@H]3[C@@H](CCC4=CC(=O)CC[C@@]43C)[C@@H]1CC[C@@H]2OC(=O)CCC1CCCC1", "note": "[Testosterone Cypionate, androst-4-en-3-one, 17-(3-cyclopentyl-1-oxopropoxy)-, (17β)-]", "values": [{"measurement": "solubility", "setting": "physchem [5]", "value": 50, "unit": "mg/mL"}, {"measurement": "Viscosity", "setting": "[6]", "value": "less than 7 cps"}]}
{"smiles": "CC(C)c1cccc(C(C)C)c1O", "note": "[Propofol, 2,6-diisopropylphenol]", "values": [{"measurement": "Viscosity", "setting": "[6]", "value": "less than 5 cps"}]}
{"smiles": "COCCCOc1ccnc(C[S+]([O-])c2nc3ccccc3[nH]2)c1C", "note": "(racemic) [Rabeprazole, (RS)-2-([4-(3-methoxypropoxy)-3-methylpyridin-2-yl]methylsulfinyl)-1H-benzo[d]imidazole]", "values": [{"measurement": "Solubility in water (descriptive)", "setting": "[1]", "value": "insoluble"}, {"measurement": "bioavailability", "setting": "[4]; enteric coated tablet", "value": 51, "unit": "%"}]}
{"smiles": "CN1C(C(=O)Nc2ccccn2)=C(O)c2ccccc2S1(=O)=O", "note": "[Piroxicam, (8E)-8-[hydroxy-(pyridin-2-ylamino)methylidene]-9-methyl-10,10-dioxo-10λ6-thia-9-azabicyclo[4.4.0]deca-1,3,5-trien-7-one]", "values": [{"measurement": "Viscosity", "setting": "[6]", "value": 3.365, "unit": "cps"}]}
{"smiles": "CC(=O)[C@H]1CC[C@H]2[C@@H]3CCC4=CC(=O)CC[C@]4(C)[C@H]3CC[C@]12C", "note": "[Progesterone, pregn-4-ene-3,20-dione]", "values": [{"measurement": "solubility in water", "setting": "[1]; at 19° C.", "value": "< 0.1", "unit": "g/100 ml"}, {"measurement": "Solubility in water (descriptive)", "setting": "[1]", "value": "insoluble"}, {"measurement": "solubility", "setting": "physchem [7]", "value": "≤ 100", "unit": "mg/mL"}]}
{"smiles": "Cc1ccc(-c2cc(C(F)(F)F)nn2-c2ccc(S(N)(=O)=O)cc2)cc1", "note": "[Celecoxib]", "values": [{"measurement": "solubility in DMSO", "setting": "[1]", "value": 200, "unit": "mg/mL"}, {"measurement": "solubility in ethanol", "setting": "[1]", "value": 100, "unit": "mg/mL"}, {"measurement": "Solubility in water (descriptive)", "setting": "[1]", "value": "very poorly soluble"}, {"measurement": "solubility", "setting": "[8]", "value": 71.4, "unit": "mg/mL"}]}
{"smiles": "NC[C@H]1O[C@H](O[C@H]2[C@H](O)[C@@H](O[C@H]3O[C@H](CO)[C@@H](O)[C@H](N)[C@H]3O)[C@H](N)C[C@@H]2N)[C@H](N)C[C@@H]1O", "note": "[Tobramycin]", "values": [{"measurement": "Solubility in water (descriptive)", "setting": "[1]", "value": "Soluble"}, {"measurement": "solubility", "setting": "[8]", "value": 3, "unit": "mg/mL"}]}
{"smiles": "COc1cc([C@@H]2c3cc4c(cc3[C@@H](O[C@@H]3O[C@@H]5CO[C@@H](C)O[C@H]5[C@H](O)[C@H]3O)[C@H]3COC(=O)[C@H]23)OCO4)cc(OC)c1O", "note": "[Etoposide, 4′-demethylepipodophyllotoxin 9-[4,6-0-(R)-ethylidene-β-D-glucopyranoside]]", "values": [{"measurement": "Solubility in water (descriptive)", "setting": "[1]", "value": "sparingly soluble"}, {"measurement": "solubility", "setting": "physchem [5]", "value": 30, "unit": "mg/mL"}]}
{"smiles": "C[C@H]1O[C@@H](O[C@H]2[C@@H](O)C[C@H](OC3CC[C@@]4(C)[C@H](CC[C@@H]5[C@@H]4C[C@@H](O)[C@]4(C)[C@@H](C6=CC(=O)OC6)CC[C@]54O)C3)O[C@@H]2C)C[C@H](O)C1OC1C[C@H](O)[C@H](O)[C@@H](C)O1", "note": "(stereo partly drawn) [Digoxin, (3β, 5β,12β)-3-[(O-2,6-dideoxy-β-D-ribo-hexopyranosyl-(1→4)-O-2,6-dideoxy-β-D-ribo-hexopyranosyl-(1→4)-2,6-dideoxy-β-D-ribo-hexopyranosyl)oxy]-12,14-dihydroxy-card-20(22)-enolide]", "values": [{"measurement": "half-life", "setting": "[4]", "value": "about 36 hours"}]}
{"smiles": "CCOC(=O)O[C@]1(C(=O)OCCl)CC[C@H]2[C@@H]3CCC4=CC(=O)C=C[C@]4(C)[C@H]3[C@@H](O)C[C@@]21C", "note": "[Loteprednol]", "values": [{"measurement": "solubility in water", "setting": "[1]", "value": 8, "unit": "μg per 1t"}, {"measurement": "solubility", "setting": "physchem [5]", "value": 25, "unit": "mg/mL"}]}
{"smiles": "CC(=O)O[C@@]12CO[C@@H]1C[C@H](O)[C@@]1(C)C(=O)[C@H](O)C3=C(C)[C@@H](OC(=O)[C@H](O)[C@@H](NC(=O)OC(C)(C)C)c4ccccc4)C[C@@](O)([C@@H](OC(=O)c4ccccc4)[C@H]21)C3(C)C", "note": "[Docetaxel, 1,7β,10β-trihydroxy-9-oxo-5β,20-epoxytax-11-ene-2α,4,13α-triyl 4-acetate 2-benzoate 13-{(2R,3S)-3-[(tert-butoxycarbonyl)amino]-2-hydroxy-3-phenylpropanoate}]", "values": [{"measurement": "Solubility in water (descriptive)", "setting": "[1]", "value": "practically insoluble"}, {"measurement": "solubility", "setting": "[8]", "value": 55, "unit": "mg/mL"}]}
{"smiles": "O=C(CCCN1CCC(O)(c2ccc(Cl)cc2)CC1)c1ccc(F)cc1", "note": "[Haloperidol, 4-[4-(p-chlorophenyl)-4-hydroxypiperidino]-4′-fluorobutyrophenone]", "values": [{"measurement": "solubility in water", "setting": "[1]", "value": 1.4, "unit": "mg/100 ml"}, {"measurement": "solubility in 0.1 N hydrochloric acid", "setting": "[1]; with heating", "value": 3, "unit": "mg/mL"}, {"measurement": "solubility", "setting": "physchem [5]", "value": 8.3, "unit": "mg/mL"}]}
{"smiles": "C[C@@H](c1ncncc1F)[C@](O)(Cn1cncn1)c1ccc(F)cc1F", "note": "[Voricanozole, (2R,3S)-2-(2,4-difluorophenyl)-3-(5-fluoropyrimidin-4-yl)-1-(1H-1,2,4-triazol-1-yl)butan-2-ol]", "values": [{"measurement": "Viscosity", "setting": "[6]", "value": 2.977, "unit": "cps"}]}
{"smiles": "CC(=O)O[C@H]1C(=O)[C@@]2(C)[C@H]([C@H](OC(=O)c3ccccc3)[C@]3(O)CC(OC(=O)[C@H](O)[C@@H](NC(=O)c4ccccc4)c4ccccc4)C(C)=C1C3(C)C)[C@]1(OC(C)=O)CO[C@@H]1C[C@@H]2O", "note": "(stereo partly drawn) [Paclitaxel, (2α,4α,5β,7β,10β,13α)-4,10-bis(acetyloxy)-13-{[(2R,3S)-3-(benzoylamino)-2-hydroxy-3-phenylpropanoyl]oxy}-1,7-dihydroxy-9-oxo-5,20-epoxytax-11-en-2-yl benzoate]", "values": [{"measurement": "Solubility in water (descriptive)", "setting": "[1]", "value": "insoluble"}, {"measurement": "solubility", "setting": "physchem [5]", "value": 23.8, "unit": "mg/mL"}]}
{"smiles": "CCCCC[C@H](O)/C=C/[C@H]1[C@H](O)CC(=O)[C@@H]1CCCCCCC(=O)O", "note": "[Prostaglandin E1 (Alprostadil), (11α,13E,15S)-11,15-dihydroxy-9-oxoprost-13-en-1-oic acid]", "values": [{"measurement": "solubility in double distilled water", "setting": "[1]; at 35° C.", "value": "8000 micrograms per 100 milliliter"}, {"measurement": "solubility", "setting": "physchem [5]", "value": 50, "unit": "mg/mL"}]}
{"smiles": "CCOC(=O)C1=C[C@]2(CC)CCCN3CCc4c(n1c1ccccc41)[C@@H]32", "note": "[Vinpocetine]", "values": [{"measurement": "Solubility in water (descriptive)", "setting": "[1]", "value": "Soluble in DMSO, DMF, ethanol, acetic acid, acetone, and chloroform. Insoluble in water."}, {"measurement": "solubility", "setting": "[8]", "value": 12, "unit": "mg/mL"}]}
{"smiles": "CCOC1O[C@@H]2O[C@@]3(C)CC[C@H]4[C@H](C)CC[C@@H]([C@H]1C)[C@@]24OO3", "note": "(mixture of isomers) [Arteether, 10-Ethoxydecahydro-3,6,9-trimethyl-3,12-epoxy-12H-pyrano[4,3-j]-1,2-benzodioxepin]", "values": [{"measurement": "Solubility in water (descriptive)", "setting": "[1]", "value": "quite water insoluble"}, {"measurement": "Solubility in Diethylene Glycol Monoethyl Ether", "setting": "[8]", "value": 80, "unit": "mg/mL"}]}
{"smiles": "CCN[C@H]1CN(CCCOC)S(=O)(=O)c2sc(S(N)(=O)=O)cc21", "note": "[Brinzolamide]", "values": [{"measurement": "solubility", "setting": "physchem [5]", "value": 55.6, "unit": "mg/mL"}]}
